For one series, the system named is rat PMVEC. Kind of series: Gamma-retroviral infection efficiency of PMVEC (percent fluorescent cells by FACS). The format is cell-based. As to conditions: for Retroviral infectivity versus control: increasing concentrations, Org 34517 0.1-30 μmol/L. As for the experimental part: Cell cultures: Phoenix Retroviral Expression System ecotropic and amphotropic packaging cells were purchased from Orbigen, Inc. (San Diego, Calif.). […] Rat pulmonary microvascular endothelial cells (PMVEC), were obtained from our cell culture core at the University of South Alabama (King J, et al. Structural and functional characteristics of lung macro and microvascular endothelial phenotypes. Microvascular Res. 2004, March, 67(2). 139-151). Human glioblastoma cells (U87MG), and human mammary carcinoma cells (T47D) were obtained from ATCC. All cells were cultured in DMEM, 10% FBS, 2 mmol L-Glutamine and used for experiments at passages 4-9. All cells were grown in humidified incubators at 37° C. in 5% CO2. Cells were harvested by 0.05% trypsin/0.53 mM EDTA digestion, washed, re-suspended in cultured medium and analyzed directly by FACScan in the University of South Alabama Flow Cytometry Core. For cell cycle analysis cellular DNA was stained with […] of propridium iodide for 20 minutes as described elsewhere (48) and then analyzed by FACScan.
Vectors and delivery systems: pBMN-GFP (Orbigen, Inc., San Diego, Calif.), a retroviral vector that expresses GFP driven by the MMLV's promoter in Phoenix and other cells was used. In some experiments Murine Stem Cell Virus (MSCV) expressing mCherry and the hybrid retroviral vector Friend Murine Embryonic-stem cell Virus (FMEV) [for Friend Mink Cell Focus-forming (FMCF)/Murine Embryonic Stem cell Virus (MESV)](31) expressing DsRed2 were used in addition to MMLV. Two lentiviral vectors pLemiR (Open Biosystems, Huntsville, Ala.) and pLVX-DsRed-Monomer-C1 (Clontech Laboratories, Inc., Mountain View, Calif.) harboring turboRFP and DsRed as reporters were also used for comparison to gamma-retroviruses. Packaging cells were transfected with retroviral vectors using FuGENE 6 reagent following the manufacturer's instructions. For virus propagation, packaging cells were cultured in growth medium for 12-18 hours. Virus was collected with cultured medium, filtered, supplemented with hexadimethrine bromide (polybrene) to a final concentration of 4 μg/ml and applied directly to target cells.
Gamma-retroviral backbones containing genes encoding fluorescent proteins as reporters were propagated in Phoenix ecotropic packaging cells. Viral-conditioned supernatant was collected and applied to target cells (rat pulmonary microvascular endothelial cells, PMVEC).

In the next series the target is T1, progesterone receptor (Homo sapiens, UniProt P06401).
T1 sequence (P06401 1-933): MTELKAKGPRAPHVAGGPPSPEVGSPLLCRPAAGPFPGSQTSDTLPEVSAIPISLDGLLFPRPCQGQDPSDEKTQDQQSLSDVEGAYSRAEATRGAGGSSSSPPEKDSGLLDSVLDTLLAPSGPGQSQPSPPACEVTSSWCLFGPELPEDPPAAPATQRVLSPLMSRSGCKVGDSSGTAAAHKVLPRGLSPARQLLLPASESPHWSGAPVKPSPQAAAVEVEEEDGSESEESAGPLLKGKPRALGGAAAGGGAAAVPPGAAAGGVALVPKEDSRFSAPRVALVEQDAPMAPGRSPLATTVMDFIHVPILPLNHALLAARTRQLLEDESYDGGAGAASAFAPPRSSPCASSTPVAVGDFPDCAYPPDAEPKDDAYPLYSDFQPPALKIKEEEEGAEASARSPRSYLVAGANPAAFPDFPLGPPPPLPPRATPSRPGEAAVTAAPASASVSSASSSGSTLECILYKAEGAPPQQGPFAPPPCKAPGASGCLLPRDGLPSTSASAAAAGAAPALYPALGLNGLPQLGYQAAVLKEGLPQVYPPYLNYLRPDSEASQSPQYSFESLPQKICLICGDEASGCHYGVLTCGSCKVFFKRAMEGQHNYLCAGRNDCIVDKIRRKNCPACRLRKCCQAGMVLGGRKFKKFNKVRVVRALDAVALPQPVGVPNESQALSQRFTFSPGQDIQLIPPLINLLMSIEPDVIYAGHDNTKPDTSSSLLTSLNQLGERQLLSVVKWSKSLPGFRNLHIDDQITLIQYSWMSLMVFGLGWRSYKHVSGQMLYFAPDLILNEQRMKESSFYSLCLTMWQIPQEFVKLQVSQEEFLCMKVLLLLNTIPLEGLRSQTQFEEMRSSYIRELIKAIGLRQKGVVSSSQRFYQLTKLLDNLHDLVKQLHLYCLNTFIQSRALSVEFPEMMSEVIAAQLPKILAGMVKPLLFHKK
As to conditions: cited from earlier work.

A further series deals with T2, glucocorticoid receptor (Homo sapiens, UniProt P04150).
T2 sequence (P04150 1-777): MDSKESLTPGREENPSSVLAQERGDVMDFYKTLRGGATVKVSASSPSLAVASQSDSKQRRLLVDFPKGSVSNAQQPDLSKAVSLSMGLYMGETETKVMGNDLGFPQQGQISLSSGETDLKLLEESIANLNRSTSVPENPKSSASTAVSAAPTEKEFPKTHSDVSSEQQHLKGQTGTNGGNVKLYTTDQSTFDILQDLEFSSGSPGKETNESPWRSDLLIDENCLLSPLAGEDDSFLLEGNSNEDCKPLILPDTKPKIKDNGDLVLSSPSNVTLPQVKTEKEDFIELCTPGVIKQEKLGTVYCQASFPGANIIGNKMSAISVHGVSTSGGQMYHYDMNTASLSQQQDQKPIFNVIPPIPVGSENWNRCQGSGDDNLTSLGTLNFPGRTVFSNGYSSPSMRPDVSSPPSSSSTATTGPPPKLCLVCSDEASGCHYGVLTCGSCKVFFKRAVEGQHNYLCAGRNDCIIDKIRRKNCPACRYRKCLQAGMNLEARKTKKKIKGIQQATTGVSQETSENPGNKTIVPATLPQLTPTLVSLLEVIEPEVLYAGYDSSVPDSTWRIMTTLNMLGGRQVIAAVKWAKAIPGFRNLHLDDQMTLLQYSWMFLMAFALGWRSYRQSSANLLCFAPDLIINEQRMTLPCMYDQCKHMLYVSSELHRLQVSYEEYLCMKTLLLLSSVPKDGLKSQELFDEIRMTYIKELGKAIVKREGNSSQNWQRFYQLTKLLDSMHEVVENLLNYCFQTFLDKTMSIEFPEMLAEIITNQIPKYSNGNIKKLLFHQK
The following applies: cited from earlier work.

Series [1] deals with rat pulmonary microvascular endothelial cells (PMVEC). Kind of series: Percent GFP-positive (infected) target cells after conditioned medium from Phoenix cells. The format is cell-based. As to conditions: conditioned medium from Phoenix cells grown with dexamethasone, plateau at 10 nmol.
The test system of the next series is Phoenix cells and PMVEC. Kind of series: Cell growth and survival of packaging and target cells.

Each structure is given as a SMILES string. pIC50: −log10 of the molar value.

The values that follow come from patent US20120028358A1, “METHOD FOR INCREASING RETROVIRAL INFECTIVITY” (priority 2010, published 2012).

In the case of `C=C1OC(CC)=NC12CCC1C3CCC4=CC(=O)CCC4=C3C(c3ccc(C(C)=O)cc3)CC12C` (centres unmarked) [7453-102, 11b-[4-(acetyl)phenyl)-4′,5′-dihydro-2′-ethyl-5′-methylenespiro[estra-4,9-dien-17b,4′-oxazole]-3-one], in the series with rat PMVEC, the “Retroviral infectivity versus control” value was “no effect”. Also, the negative-log IC50 (pIC50) (in general, the IC50 on a negative log10 scale, so that one unit is a factor of ten) on progesterone receptor is 9.47.
Take `CC#C[C@]1(O)CC[C@H]2[C@@H]3CCC4=CC(=O)CCC4=C3[C@@H](c3ccc4c(c3)OCO4)C[C@@]21C` [Org 34517]: the pIC50 at glucocorticoid receptor is 7.75. Further, in the series with rat PMVEC, the “Potency in increasing retroviral infectivity relative to mifepristone” value is “less potent than mifepristone” and the “Retroviral infectivity versus control” value is given as “significantly increased”.
`C[C@@H]1C[C@H]2[C@@H]3CCC4=CC(=O)C=C[C@]4(C)[C@@]3(F)[C@@H](O)C[C@]2(C)[C@@]1(O)C(=O)CO` [dexamethasone, Dexamethasone]: the “Percentage of GFP-positive (infected) PMVEC” value in series [1] is listed as 45%. In addition, the Cell growth result in the series on Phoenix cells and PMVEC (over 7 days, retrovirus producing or target cells (data not shown)) is on record as “no effect”. For the same compound, the “Adverse effects on cell growth or survival” value in the series on Phoenix cells and PMVEC (packaging or target cells) was “did not cause any evident adverse effects”.
